Inhibition data for four compounds are collected here from ChEMBL document CHEMBL1154301, “A naturally occurring brominated furanone covalently modifies and inactivates LuxS” (Bioorg Med Chem Lett, 2009).

Active and inactive are the calls of the source. No cut-off for these calls is given here.

Assay [1] concerns the target T1, S-ribosylhomocysteine lyase (Escherichia coli K-12) (UniProt P45578).
T1 sequence (whole entry): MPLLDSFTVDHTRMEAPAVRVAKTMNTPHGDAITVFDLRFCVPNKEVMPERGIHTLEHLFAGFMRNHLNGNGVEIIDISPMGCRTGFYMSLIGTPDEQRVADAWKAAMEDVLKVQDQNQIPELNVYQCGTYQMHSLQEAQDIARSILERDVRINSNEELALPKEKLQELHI
Description: Inhibition of Escherichia coli LuxS using S-ribosyl-homocysteine substrate at pH 7 after 10 mins by fluorimetric assay.

Assay [2] concerns the target T1, S-ribosylhomocysteine lyase (Escherichia coli K-12). Kind of assay: Inhibition of Escherichia coli LuxS using variable levels of S-ribosyl-homocysteine substrate at pH 7 after 10 mins by fluorimetric assay.
For assay [3] the target is unchanged. Description: Inhibition of Escherichia coli LuxS using variable levels of S-ribosyl-homocysteine substrate by UV/Vis absorbance spectroscopy. The conditions noted are these: TDE = time-dependent effect.
Assay [4] has the same target. Kind of assay: Inhibition of Escherichia coli LuxS assessed as induction of covalent modification by UV/Vis absorbance spectroscopy.
For assay [5] the target is unchanged. Description: Inhibition of Escherichia coli LuxS assessed as formation of enzyme-adduct formation by mass spectrometry.
Assay [6] has the same target. Kind of assay: Inhibition of Escherichia coli LuxS assessed as induction of Cys126 alkylation by MALDI-MS method.

As for `CCCCC1=CC(=C(Br)Br)OC1=O`, the inhibition entry in assay [1] was “Active”.
Still for that read-out and setting: next, `O=C1C=CC(=C(Br)Br)O1`: “Active”; `O=C1C=C/C(=C/Br)O1`: “Dose-dependent effect”.
`CCCCC1=C(Br)/C(=C/Br)OC1=O`: the inhibition result in assay [1] was “Dose-dependent effect”; in assay [3], “tde”. Also, the inhibition result in assay [2], in assay [4], in assay [5] and in assay [6] was “Active” in each case.
